Experimental data as given in patent US20140030368A1, “COMPOSITION FOR PREVENTING OR TREATING A RESPIRATORY DISEASE CONTAINING A MIXED HERBAL EXTRACT OF CNIDIUM OFFICINALE ROOT AND POLYGONI CUSPIDATI ROOT” (WHANIN PHARMACEUTICAL CO., LTD., priority 2011, published 2014).

Experiments:
Format in all cases: in vivo, mice
[1] = test system: inflammatory cells in pulmonary bronchoalveolar lavage; test: Inflammatory cells in pulmonary bronchoalveolar lavage, E. coli-EV-induced asthma/COPD model
Description: Whether the extract of the present invention has the effect of inhibiting pulmonary bronchial inflammation in an E. coli-EV-induced asthma/chronic obstructive pulmonary disease model was evaluated.
Specifically, a mixture of 10 ng of E. coli-EV and PBS was intranasally administered a total of four times (days 0, 1, 2 and 7) into C57BL/6 male mice (6 weeks old; provided from the Animal Laboratory in Biotech Center, Pohang University of Science & Technology) to sensitize the mice. At 14, 15, 21 and 22 days from the first sensitization date, 10 ng of E. coli-EV was challenged into the nasal cavity to induce asthma and chronic obstructive pulmonary disease. In addition, at 14, 15, 21 and 22 days at which the challenge was performed, each of 1.0% CMC, 100, 200 and 400 mg/10 ml/kg of the extract of Example 2, 1 mg/10 ml/kg of the comparative drug dexamethason and 10 mg/10 ml/kg of the comparative drug montelukast was orally administered twice a day. At 48 hours after the final challenge, the mice were anesthetized by intraperitoneal administration of ketamine and xylazine, and the organ of the mice was exposed and a catheter was inserted therein. Then, the bronchoalveoli were laved with each of 0.8 and 0.7 ml of sterile phosphate buffered saline to obtain a bronchoalveolar lavage The bronchoalveolar lavage was centrifuged at 4° C. at 1000 rpm for 5 minutes, and the supernatant was removed. 2 ml of 10% FBS-IMDM (fetal bovine serum—Iscove's Modified Dulbecco's Medium) was added to the cells which were then counted. Then, the cells were cytospun, plated on a slide, and Diff-Quick stained. At least 300 inflammatory cells were observed by the staining method and classified into eosinophils, macrophages, neutrophils and lymphocytes, and the cell numbers of the groups treated with dexamethason, montelukast and the extract of Example 2 were compared with the ratios of inflammatory cells in the pulmonary bronchoalveolar lavages of the negative control group and the positive control group, thereby evaluating the inhibitory effects of the test materials against airway inflammation.

IFN-γ (interferon-γ) = test: T cell-derived cytokine from lung tissue, LPS-induced asthma/COPD model (ELISA); details: ovalbumin + LPS model
Description: (§1) In order to examine whether the extract of the present invention has the effect of inhibiting T cell-derived cytokine isolated from the lung tissue of an LPS-derived asthma/chronic obstructive pulmonary disease model, the following test was performed.
(§2) Specifically, the LPS-induced asthma/chronic obstructive pulmonary disease model was prepared by treatment with each of the extract of Example 2 and a comparative drug in the same manner as described in Test Example 7-1. At 6 hours after the final challenge, the mice were anesthetized by intraperitoneal injection with ketamine and xylazine, and lung tissue was obtained from the mice. The lung tissue was cut finely with a blade and incubated with 5 ml of 1× Trypsin-EDTA and 1000 units of chollagenase at 37° C. for 10 minutes. Then, the tissue was passed through a 100 μm mesh to collect only immune cells. To stimulate T cells among the collected cells, 1×10^5 cells and anti-CD28 (1 μg/ml) were added to a 96-well plate coated with anti-CD3 (1 μg/ml) and were incubated in an incubator at 37° C. for 12 hours. Next, the supernatant was collected, and the amounts of the cytokines IL-17 (interleukin 17) and IFN-γ (interferon-γ) in the supernatant were measured using an ELISA (enzyme-linked immunosorbent assay).

IL-17 (interleukin 17) = test: as above; details: ovalbumin + LPS model
Description: as §1, §2

[2] = test system: IP-10 (interferon-gamma inducible protein-10); test: Inflammatory mediator in bronchoalveolar lavage, LPS-induced asthma/COPD model (ELISA); details: ovalbumin + LPS model
Description: In order to examine whether the extract of the present invention has the effect of inhibiting inflammatory mediators in a bronchoalveolar lavage in an LPS-induced asthma/chronic obstructive pulmonary disease model, the expression pattern of the inflammatory mediator IP-10 (interferon-gamma inducible protein-10) in the bronchoalveolar lavage obtained in Test Example 7-2 was measured using an ELISA assay, and the results of the measurement are shown in Table 10 below.

[3] = test system: anti-ovalbumin-specific IgG1 antibody; test: Antigen-specific antibody in serum, LPS-induced asthma/COPD model (ELISA)
Description: In order to examine whether the extract of the present invention has the ability to produce an antigen-specific antibody in an LPS-induced asthma/chronic obstructive pulmonary disease model, the LPS-induced asthma/chronic obstructive pulmonary disease model was prepared by treatment with each of the extract of Example 2 and a comparative drug in the same manner as described in Test Example 7-1. At 48 hours after the final challenge, the mice were anesthetized by intraperitoneal injection with ketamine and xylazine. Then, blood was collected from the heart using a 1 ml syringe, and serum was separated from the blood by centrifugation. Then, an anti-ovalbumin-specific IgG1 antibody in the serum was measured according to an ELISA assay, and the results of the measurement are shown in Table 11 below.

IL-4 (interleukin-4) = test: T cell-derived cytokine from lung tissue, ovalbumin-induced asthma/COPD model
Description: In order to examine whether the extract of the present invention has the effect of inhibiting adaptive immune responses in an ovalbumin (OVA)-induced asthma/chronic obstructive pulmonary disease model, the content of T cell-derived cytokines isolated from lung tissue was measured (see Seong Gyu Jeon et al., J. Allergy Clin. Immunol., 2007, 119, 831-837).
Specifically, a mixture of 75 μg of ovalbumin (OVA, Sigma) and 2 mg of aluminum hydroxide (Alum, Sigma) was intraperitoneally administered twice (days 0 and 7) into BALB/c female mice (6 weeks old; provided from Animal Laboratory in Biotech Center, Pohang University of Science & Technology) to sensitize the mice. At 14, 15 and 21 days after the first sensitization date, 50 μg of ovalbumin in PBS was challenged into the nasal cavity to induce asthma and chronic obstructive pulmonary disease. […]
Then, the lung tissue was finely cut with a blade and incubated with 5 ml of 1× Trypsin-EDTA and 1000 units of chollagenase at 37° C. for 10 […]. […] Then, the supernatant was collected, and the amount of cytokine IL-4 (interleukin-4) in the supernatant was measured using an ELISA (enzyme-linked immunosorbent assay).

SMILES: CC(C)(O)c1ccccc1CC[C@@H](SCC1(CC(=O)O)CC1)c1cccc(/C=C/c2ccc3ccc(Cl)cc3n2)c1 [montelukast]
- Inhibition rate(%) Eosinophils ([1]; 10 mg/kg b.i.d.): 15.4%
- Inhibition rate(%) Macrophages ([1]; 10 mg/kg b.i.d.): 1.3%
- Inhibition rate(%) Total cells ([1]; 10 mg/kg b.i.d.): 1.2%
- IFN-γ inhibition rate (%) (IFN-γ (interferon-γ); 10 mg/kg b.i.d.): 14.50%
- IL-17 inhibition rate (%) (IL-17 (interleukin 17); 10 mg/kg b.i.d.): 68.42%
- IP-10 inhibition rate (%) ([2]; 10 mg/kg b.i.d.): 1.80%
- IGg1 in serum ([3]; 10 mg/kg b.i.d.): 44.84
- IGg1 in serum, Inhibition rate (%) ([3]; 10 mg/kg b.i.d.): 33.91%
- IL-4 inhibition rate (%) (IL-4 (interleukin-4); 10 mg/kg b.i.d. oral): 14.07%

SMILES: C[C@@H]1C[C@H]2[C@@H]3CCC4=CC(=O)C=C[C@]4(C)[C@@]3(F)[C@@H](O)C[C@]2(C)[C@@]1(O)C(=O)CO [Dexamethason, dexamethason]
- Inhibition rate(%) Eosinophils ([1]; 1 mg/kg b.i.d.): 1.1%
- Inhibition rate(%) Macrophages ([1]; 1 mg/kg b.i.d.): 24.7%
- Inhibition rate(%) Total cells ([1]; 1 mg/kg b.i.d.): 9.2%
- IFN-γ inhibition rate (%) (IFN-γ (interferon-γ); 1 mg/kg b.i.d.): 15.19%
- IL-17 inhibition rate (%) (IL-17 (interleukin 17); 1 mg/kg b.i.d.): 23.12%
- IP-10 inhibition rate (%) ([2]; 1 mg/kg b.i.d.): 4.09%
- IGg1 in serum ([3]; 1 mg/kg b.i.d.): 28.94
- IGg1 in serum, Inhibition rate (%) ([3]; 1 mg/kg b.i.d.): 57.35%
- IL-4 inhibition rate (%) (IL-4 (interleukin-4); 1 mg/kg b.i.d. oral): 43.57%
